This is an account of results in patent publication US7608611B2, “Hsp90 inhibitors, methods of making and uses therefor” (The Regents of the University of Colorado, priority 2005, dated 2009).

As usually defined, the IC50 is the concentration at which inhibition is half-maximal. As a reminder, the inhibition is the change of the read-out against control, counted positive when it falls.

The subject of data set [1] is MDA468/NQ16 cells. To be noted: MTT.
Protocol: (§2) Cells were seeded at 2×10^3 cells per well (96 well plate) in complete medium overnight.
The next data set relates to Hsp90. As to the kind of experiment: Immunoblot of Hsp90 inhibition markers (Hsp70, Raf-1, pMEK, pERK) in MDA468/NQ16 versus MDA468 cells. Format: cell-based, human. The settings on record: MDA468/NQ16 compared to MDA468 cells. The protocol: Results were confirmed in duplicate experiments. […] Results were confirmed in duplicate experiments.
To measure Hsp90 inhibition in these cells we analyzed Hsp70 induction and Raf-1 degradation as markers of Hsp90 inhibition (FIG. 5). […] Following drug treatment cells were washed in PBS then lysed by the addition of RIPA buffer (50 mM Tris-HCl, pH 7.4, 0.5% (v/v) NP40) containing 1 mini-protease tablet (protease inhibitor cocktail, Roche Indianapolis Ind.) and phosphatase inhibitors (30 mM NaF, 40 mM β-glycerol phosphate, 20 mM sodium pyrophosphate, 1 mM orthovanadate, 1 mM EGTA). Lysates were probe sonicated (2s) on ice then centrifuged to remove cellular debris. Protein concentrations were determined on supernatant. […] Membranes were blocked in 10 mM Tris-HCl, pH 8.0, 150 mM NaCl, 0.2% Tween-20 and 5% non-fat milk for a minimum of 1 hr at room temperature. Anti-Hsp70, anti-Raf-1, anti-MEK and anti-ERK antibodies were added for 1 hr at room temperature. Anti-phospho MEK and ERK antibodies were added overnight at 4° C. All primary antibodies were diluted 1:1,000 except actin (1:5,000). Horseradish peroxidase-labeled secondary antibodies (Jackson ImmunoResearch Labs, West Grove Pa.) were diluted 1:5000 and added for 30 min. Proteins were visualized using enhanced chemilumenscence detection.

For data set [2], the target named is T1, NQO1 (Homo sapiens, UniProt P15559). The experiment in a line: Reduction of 17-AAG by rhNQO1 and NADH, HPLC analysis. Format: in vitro ADME. The protocol:
HPLC conditions: Buffer A, 50 mM ammonium acetate, pH 4 containing 10 μM D(−) penicillamine; buffer B, acetonitrile (100%). Both buffers were continuously bubbled with N2. Gradient, 20% B to 85% B over 20 min, then 85% for 4 min (flow rate of 1 ml/min). The sample injection volume was 50 μl. Liquid Chromatography-Mass Spectrometry was performed using positive ion electrospray ionization (ESI) and the mass spectra were obtained with a PE Sciex API-3000 triple quadrupole mass spectrometer (Foster City, Calif.) with a turbo ionspray source interfaced to a PE Sciex 200 HPLC system. Samples were chromatographed on a Luna C18 reverse-phase column (5 μm, 50×2 mm (Phenomenex) using a gradient elution consisting of a 2 min initial hold at 20% B followed by an increase to 80% B over 20 min at a flow rate of 0.2 ml/min and a sample injection volume of 20 μl. Buffer A, 10 mM ammonium acetate containing 0.1% (v/v) acetic acid, pH 4.4: buffer B, 10 mM ammonium acetate in acetonitrile containing 0.1% (v/v) acetic acid. The mass spectrometer settings were: turbo ionspray temperature of 250° C., spray needle voltage at 4500 V, declustering potential (DP) at 35 V and focus plate (FP) at 125 V. Mass spectra were continuously recorded from 150 to 1000 amu every 3 s during the chromatographic analysis.
Inhibition of rhNQO1 by ES936 was >98%. […]

Data set [3] concerns MDA468/NQ16 cell sonicates. The settings on record: NADH or NADPH.
Protocol: The human breast cancer cell line MDA468 and the NQO1 stably transfected cell line MDA468/NQ16 (Clin. Cancer Res. 2004; 10:3147-55) were grown in RPMI-1640 containing 10% (v/v) fetal bovine serum and 1% (v/v) penicillin, streptomycin and glutamine. […] Protein concentrations were determined by the method of Lowry. […] The parental MDA468 cell lines is NQO1 null (<10 nmoles DCPIP/min/mg) due to homozygous expression of the NQO1*2 polymorphism. The stable transfection of the MDA468 cell line with human NQO1 generated the MDA468/NQ16 cell line, which has high NQO1 activity (>1,800 nmoles DCPIP/min/mg).
For data set [4], the system named is MDA468/NQ16 cells.
The conditions of data set [5]: clinical trials, background statement; cited from earlier work.
Data set [6] concerns MDA468 cells. The experiment in a line: Metabolism of 17-AAG in intact MDA468 cells, HPLC. Format: cell-based, human. To be noted: 5 μM 17-AAG, 4 hr.
Data set [7] relates to MDA468 cells. To be noted: read-out: IC50 growth inhibition; parental MDA468 cells, 4 hr exposure then 72 hr drug-free, MTT.
Protocol: as §2
For another data set, the system named is MDA468 cell sonicates. The experiment in a line: Reduction of 17-AAG by MDA468 cell sonicates, HPLC. The format is in vitro ADME, human.
A further data set concerns the target yeast Hsp90 (Saccharomyces cerevisiae, UniProt P02829). The format is biochemical. To be noted: 17-AAG, 3 hr; for inhibition of yeast Hsp90 ATPase activity in the presence of NQO1 (17-AAGH2 formed): NADH and rhNQO1.
Data set [8] can be described thus: Stability (autoxidation) of 17-AAGH2 in solution by HPLC. Format: physicochemical. An excerpt:
Results are mean, standard deviation, n=3.
During analysis HPLC buffers were continuously gassed with N2 and a copper chelator was included. […] In these studies the autoxidation of 17-AAGH2 was followed over time in an aerobic reaction.

Data set [9] concerns the target T1, NQO1. The experiment in a line: Inhibition of NQO1 activity by ES936 in MDA468/NQ16 cells. The format is cell-based. Set-up: expressed in transfected cells; host or cells: MDA468/NQ16 (human breast cancer MDA468 stably transfected with human NQO1). The source says: (§1) Inhibition of rhNQO1 by ES936 was >98%.
Data set [10] deals with T1, NQO1. As to the kind of experiment: Inhibition of rhNQO1 by ES936. Format: biochemical.
From the text: as §1

Setting [11] is: MDA468/NQ16 cells, 5 μM 17-AAG, 4 hr.

Read-outs that look alike come from different tables or passages of the source.

Chain of yeast Hsp90 (P02829 whole entry): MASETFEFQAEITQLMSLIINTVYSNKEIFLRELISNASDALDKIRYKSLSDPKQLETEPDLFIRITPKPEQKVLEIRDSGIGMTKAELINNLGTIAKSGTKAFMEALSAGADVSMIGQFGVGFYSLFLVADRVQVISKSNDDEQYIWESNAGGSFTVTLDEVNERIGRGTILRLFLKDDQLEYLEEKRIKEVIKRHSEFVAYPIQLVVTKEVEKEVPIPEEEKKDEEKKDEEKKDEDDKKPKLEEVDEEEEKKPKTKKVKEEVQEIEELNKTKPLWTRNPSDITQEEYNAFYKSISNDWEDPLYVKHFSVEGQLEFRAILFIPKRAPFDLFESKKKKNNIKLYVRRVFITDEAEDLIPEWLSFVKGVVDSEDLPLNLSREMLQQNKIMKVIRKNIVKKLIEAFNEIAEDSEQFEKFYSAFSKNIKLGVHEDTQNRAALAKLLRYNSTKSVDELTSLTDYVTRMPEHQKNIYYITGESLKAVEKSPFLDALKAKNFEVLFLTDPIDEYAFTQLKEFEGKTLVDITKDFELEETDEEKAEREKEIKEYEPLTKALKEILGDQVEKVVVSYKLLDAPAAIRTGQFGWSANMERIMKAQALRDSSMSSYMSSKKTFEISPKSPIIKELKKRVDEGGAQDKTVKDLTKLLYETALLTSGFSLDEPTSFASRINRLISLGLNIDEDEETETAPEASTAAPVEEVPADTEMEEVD
T1 sequence (P15559 whole entry): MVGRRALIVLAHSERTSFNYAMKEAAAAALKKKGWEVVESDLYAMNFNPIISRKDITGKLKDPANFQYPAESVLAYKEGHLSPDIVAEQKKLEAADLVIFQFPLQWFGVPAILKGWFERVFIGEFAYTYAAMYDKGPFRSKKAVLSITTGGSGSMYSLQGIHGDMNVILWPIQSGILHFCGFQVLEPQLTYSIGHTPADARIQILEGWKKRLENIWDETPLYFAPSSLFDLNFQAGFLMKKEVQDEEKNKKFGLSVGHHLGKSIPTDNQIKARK
Protocol for yeast Hsp90: Reactions with yeast Hsp90 (top panel) were analyzed after 3 hr, while reactions with human Hsp90 (bottom panel) were analyzed after 12 hr. Phosphate concentrations were measured using the malachite green assay.
Reactions (25 μl) were started by the addition of 1 mM ATP and allowed to proceed at 37° C. for the indicated times. Reactions were then diluted with 225 μl of 100 mM Tris-HCl, pH 7.4, containing 20 mM KCl and 6 mM MgCl2 mixed thoroughly, and 80 μl was transferred to each well (96 well plate) followed by 20 μl of malachite green reagent. After 10 min 83 mM trisodium citrate was added to stabilize the color and plates were read at 650 nm.

As to `C=CCNC1=C2C[C@@H](C)C[C@H](OC)[C@H](O)[C@@H](C)/C=C(\C)[C@H](OC(N)=O)[C@@H](OC)/C=C\C=C(/C)C(=O)NC(=CC1=O)C2=O` [17-AAG, 17-demethoxy-17-(2-propenylamino)-geldanamycin], the IC50 was 7.67 ± 1.36 µM in the data set on MDA468/NQ16 cells [1] (read-out: IC50 growth inhibition after pretreatment with ES936, pretreatment with 100 nM ES936 for 30 min, 4 hr exposure then 72 hr); 0.86 ± 0.16 µM with MDA468/NQ16 cells [1] (read-out: IC50 growth inhibition, MDA468/NQ16 cells, 4 hr exposure then 72 hr drug-free); 10.1 ± 1.07 µM with MDA468 cells [7]. Besides, the Hsp70 induction entry in the data set on Hsp90 (17-AAG 0.5-1 μM, 8 hr) is “greater Hsp70 induction”. Besides, the Raf-1 degradation result with Hsp90 (17-AAG 0.5-1 μM, 8 hr) is “increased Raf-1 degradation”. The “MEK and ERK phosphorylation” value in the data set on Hsp90 (serum starved 24 hr, 17-AAG 8 hr) is “decreased levels of both MEK and ERK phosphorylation”. Besides, the “17-AAG detected in the form of the hydroquinone after reduction by NQO1” value at NQO1 [2] was found to be 90%. Moreover, the figures for the “generation of 17-AAGH2 by cell sonicates” value (in data set [3]; with MDA468 cell sonicates) were “readily generated 17-AAGH2” and “No 17-AAGH2 could be detected”, respectively. Further, the “Cell viability (trypan blue exclusion assay)” value with MDA468/NQ16 cells [4] (setting [11]) and in the data set with MDA468 cells [6] was greater than 90% each time. The “formation of 17-AAGH2 in intact cells” value with MDA468/NQ16 cells [4] (setting [11]) is recorded as 17-AAGH2 could be generated; with MDA468 cells [6], “No 17-AAGH2 could be detected”. The “accumulation of total drug (quinone plus hydroquinone) in cells” value in the data set on MDA468/NQ16 cells [4] (MDA468/NQ16 compared to ES936-treated or parental MDA468 cells) is reported as “accumulated more total drug”. Moreover, the “hepatotoxicity / liver toxicity” value in [5] was “do not induce liver toxicity”. For the same molecule, on yeast Hsp90, the “inhibition of yeast Hsp90 ATPase activity in the presence of NQO1 (17-AAGH2 formed)” value is on record as “substantial decrease in ATPase activity”. In addition, on yeast Hsp90 (NADH), the “inhibition of yeast Hsp90 ATPase activity in the absence of NQO1” value is listed as “No inhibition”.
Regarding `C=CCNc1c(O)cc2c(O)c1CC(C)CC(OC)C(O)C(C)C=C(C)C(OC(N)=O)C(OC)C=CC=C(C)C(=O)N2` (stereo not shown) [17-AAGH2, 17-Demethoxy-18,21-dihydroxy-17-(2-propenylamino)-geldanamycin], the “autoxidation of the hydroquinone back to the quinone over time” value in [8] (aerobic, 50 mM potassium phosphate buffer pH 7.4, 27° C.) is listed as “slow rate of autoxidation back to 17-AAG over a period of hours”. Further, the “effect of copper on 17-AAGH2 oxidation” value in data set [8] (inclusion of copper (CuSO4)) is “could facilitate 17-AAGH2 oxidation”. On yeast Hsp90, the “inhibition of yeast Hsp90 ATPase activity in the presence of NQO1 (17-AAGH2 formed)” value is “the active Hsp90 inhibitor”.
Consider `CO[C@H]1/C=C\C=C(/C)C(=O)NC2=CC(=O)C(NCCN(C)C)=C(C[C@@H](C)C[C@H](OC)[C@H](O)[C@@H](C)/C=C(\C)[C@@H]1OC(N)=O)C2=O` [17-DMAG, 17-demethoxy-17-[[2-(dimethylamino)ethyl]amino]-geldanamycin], for which the “hepatotoxicity / liver toxicity” value in data set [5] was “do not induce liver toxicity”.
`COC1=CC(=O)c2c(c(COc3ccc([N+](=O)[O-])cc3)c(C)n2C)C1=O` [ES936, 5-methoxy-1,2-dimethyl-3-[(4-nitrophenoxy)methyl]indole-4,7-dione] had an inhibition at 0.1 µM against NQO1 [9] (single dose 100 nM ES936, after 4 hr, MDA468/NQ16 cells) greater than 96%. For the same molecule, at NQO1 [9] (single dose of 100 nM), the “toxicity of ES936 to cells” value is listed as “nontoxic”. In addition, the “Inhibition of rhNQO1” value at NQO1 [10] is recorded as greater than 98%.
Take `COC1=C2C[C@@H](C)C[C@H](OC)[C@H](O)[C@@H](C)/C=C(\C)[C@H](OC(N)=O)[C@@H](OC)/C=C\C=C(/C)C(=O)NC(=CC1=O)C2=O` [GDM, geldanamycin]: the “hepatotoxicity / liver toxicity” value in data set [5] is on record as “unacceptable hepatotoxicity”.
